The record followed here is patent US12071404B2, “Aza (indole)-, benzothiophene-, and benzofuran-3-sulfonamides” (UCB Pharma GmbH, priority 2016, dated 2024).

Assay [1] concerns the target T1, GPR17 (Homo sapiens, UniProt Q13304). Kind of assay: Calcium mobilization functional assay (GPR17 Ca2+ assay). As to conditions: CHO hGPR17 cells, inhibition of 50 nM MDL29,951, Calcium 5 dye, FLIPR; read-out: Ca2+ assay pIC50 (converted). The class given is cell-based. Also noted: host or cells: Flp-In T-REx CHO. The method, boiled down:
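pIC50 values were fitted with a 4-parameter logistic curve. They reflect test-compound inhibition of cytosolic Ca2+ release evoked by 50 nM MDL29,951, tracked as Calcium 5 fluorescence at room temperature. Cells were CHO Flp-In T-REx stably carrying human GPR17, induced with doxycycline 1 μg/mL for 16-20 h.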
Background: Calcium flux is commonly read through the fluorescence of an indicator in the cells.

Assay [2] addresses T1, GPR17. Kind of assay: cAMP accumulation functional assay (HTRF, Schild analysis). The class given is cell-based. Details: host or cells: Flp-In T-REx CHO. The conditions noted are these: CHO hGPR17 cells, Schild analysis vs MDL29,951, 5 μM forskolin, read-out: cAMP assay pA2 (converted). The method, boiled down:
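Antagonist affinity (pA2) came from Schild plots of dose ratios, based on MDL29,951 concentration-response curves fitted by 4-parameter logistic. The read-out was HTRF cAMP in 5,000 doxycycline-induced CHO hGPR17 cells per well, with 30 min compound preincubation and 60 min stimulation, at room temperature in pH 7.4 buffer.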
(Cyclic AMP is a second messenger, typically raised through Gs and lowered through Gi signalling.)

Each structure is given as a SMILES string.

T1 sequence (Q13304 whole entry): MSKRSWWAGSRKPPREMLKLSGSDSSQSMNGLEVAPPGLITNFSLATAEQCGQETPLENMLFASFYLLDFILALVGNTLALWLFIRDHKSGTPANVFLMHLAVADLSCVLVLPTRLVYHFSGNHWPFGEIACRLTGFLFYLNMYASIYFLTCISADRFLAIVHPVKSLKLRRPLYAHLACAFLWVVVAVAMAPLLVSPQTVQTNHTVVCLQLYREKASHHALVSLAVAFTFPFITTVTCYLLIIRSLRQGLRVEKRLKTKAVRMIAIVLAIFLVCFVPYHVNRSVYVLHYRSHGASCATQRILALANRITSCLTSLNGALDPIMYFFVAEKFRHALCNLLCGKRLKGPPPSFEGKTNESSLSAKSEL

In the case of `O=S(=O)(Nc1cc(F)c(Cl)cc1F)c1c[nH]c2cc(OCC(F)(F)F)ccc12` [Compound I-300, N-(4-chloro-2,5-difluorophenyl)-6-(2,2,2-trifluoroethoxy)-1H-indole-3-sulfonamide], the IC50 in assay [1] was 3.16 to 31.6 nM. For the same compound, in assay [2], the Kb was 3.16 to 31.6 nM.

Regarding `O=c1[nH]c2cccc(NS(=O)(=O)c3c[nH]c4cc(Cl)ccc34)c2o1` [Compound I-301, 6-chloro-N-(2-oxo-2,3-dihydro-1,3-benzoxazol-7-yl)-1H-indole-3-sulfonamide], in assay [1], the IC50 is 3.16 to 31.6 nM. In assay [2], the Kb was 3.16 to 31.6 nM.

With `O=S(=O)(Nc1ncc(F)cc1F)c1c[nH]c2cc(Cl)ccc12` [Compound I-302, 6-chloro-N-(3,5-difluoropyridin-2-yl)-1H-indole-3-sulfonamide], the IC50 in assay [1] is 3.16 to 31.6 nM. Further, in assay [2], the Kb is 3.16 to 31.6 nM.

Consider `O=S(=O)(Nc1cc(F)c(C(F)(F)F)cc1F)c1c[nH]c2nc(Cl)ccc12` [Compound I-303, 6-chloro-N-[2,5-difluoro-4-(trifluoromethyl)phenyl]-1H-pyrrolo[2,3-b]pyridine-3-sulfonamide], for which the IC50 in assay [1] is less than 3.16 nM. Besides, in assay [2], the Kb was less than 3.16 nM.

For the compound `O=S(=O)(Nc1nc(F)c(Cl)cc1F)c1c[nH]c2c1ccc1ccccc12` [Compound I-304, N-(5-chloro-3,6-difluoropyridin-2-yl)-1H-benzo[g]indole-3-sulfonamide], in assay [1], the IC50 is less than 3.16 nM. For the same compound, the Kb in assay [2] is less than 3.16 nM.

Take `O=S(=O)(Nc1cc(F)c(Br)cc1F)c1c[nH]c2c1ccc1cccnc12` [Compound I-305, N-(4-bromo-2,5-difluorophenyl)-1H-pyrrolo[3,2-h]quinoline-3-sulfonamide]: the IC50 in assay [1] was less than 3.16 nM. In addition, the Kb in assay [2] was less than 3.16 nM.

For the compound `C#Cc1ccc(NS(=O)(=O)c2c[nH]c3c2ccc2cccnc23)c(F)c1` [Compound I-306, N-(4-ethynyl-2-fluorophenyl)-1H-pyrrolo[3,2-h]quinoline-3-sulfonamide], the IC50 in assay [1] is 3.16 to 31.6 nM. The Kb in assay [2] is less than 3.16 nM.

As to `O=S(=O)(Nc1nc(F)c(Cl)cc1F)c1c[nH]c2nc(Cl)ccc12` [Compound I-307, 6-chloro-N-(5-chloro-3,6-difluoropyridin-2-yl)-1H-pyrrolo[2,3-b]pyridine-3-sulfonamide], the IC50 in assay [1] was 3.16 to 31.6 nM. In assay [2], the Kb is 3.16 to 31.6 nM.

As to `O=S(=O)(Nc1cc(F)c(I)cc1F)c1c[nH]c2cc(Cl)ccc12` [Compound I-308, 6-chloro-N-(2,5-difluoro-4-iodophenyl)-1H-indole-3-sulfonamide], the IC50 in assay [1] is less than 3.16 nM. The Kb in assay [2] is less than 3.16 nM.

For the compound `COc1nc(NS(=O)(=O)c2c[nH]c3c(OC)c(Cl)ccc23)c(F)cc1Cl` [Compound I-309, 6-chloro-N-(5-chloro-3-fluoro-6-methoxypyridin-2-yl)-7-methoxy-1H-indole-3-sulfonamide], the IC50 in assay [1] was less than 3.16 nM. The Kb in assay [2] is less than 3.16 nM.

Consider `COc1c(Cl)ccc2c(S(=O)(=O)Nc3nc(F)c(Cl)cc3F)c[nH]c12` [Compound I-310, 6-chloro-N-(5-chloro-3,6-difluoropyridin-2-yl)-7-methoxy-1H-indole-3-sulfonamide], for which the IC50 in assay [1] is less than 3.16 nM. In addition, in assay [2], the Kb is less than 3.16 nM.

On to `N#Cc1ccc(NS(=O)(=O)c2csc3cc(Cl)ccc23)cc1` [Compound I-311, 6-chloro-N-(4-cyanophenyl)-1-benzothiophene-3-sulfonamide], for which the IC50 in assay [1] was 3.16 to 31.6 nM. In assay [2], the Kb is 3.16 to 31.6 nM.

For the compound `O=S(=O)(Nc1cc(F)c(Cl)cc1F)c1csc2cc(Cl)ccc12` [Compound I-312, 6-chloro-N-(4-chloro-2,5-difluorophenyl)-1-benzothiophene-3-sulfonamide], in assay [1], the IC50 is 3.16 to 31.6 nM. Further, the Kb in assay [2] was 3.16 to 31.6 nM.

On to `N#CCOc1cc(F)c(NS(=O)(=O)c2csc3cc(Cl)ccc23)cc1F` [Compound I-313, 6-chloro-N-[4-(cyanomethoxy)-2,5-difluorophenyl]-1-benzothiophene-3-sulfonamide], for which, in assay [1], the IC50 was 3.16 to 31.6 nM. For the same compound, in assay [2], the Kb was 3.16 to 31.6 nM.

Consider `COc1nc(NS(=O)(=O)c2csc3cc(Cl)ccc23)c(F)cc1Cl` [Compound I-314, 6-chloro-N-(5-chloro-3-fluoro-6-methoxypyridin-2-yl)-1-benzothiophene-3-sulfonamide], for which the IC50 in assay [1] is 3.16 to 31.6 nM. The Kb in assay [2] is 3.16 to 31.6 nM.

On to `COc1nc(NS(=O)(=O)c2csc3cc(Cl)ccc23)c(F)cc1CC#N` [Compound I-315, 6-chloro-N-[5-(cyanomethyl)-3-fluoro-6-methoxypyridin-2-yl]-1-benzothiophene-3-sulfonamide], for which, in assay [1], the IC50 is less than 3.16 nM. Further, in assay [2], the Kb is less than 3.16 nM.

Consider `O=S(=O)(Nc1nc(F)c(Cl)cc1F)c1c[nH]c2c1ccc1cccnc12` [Compound I-316, N-(5-chloro-3,6-difluoropyridin-2-yl)-1H-pyrrolo[3,2-h]quinoline-3-sulfonamide], for which the IC50 in assay [1] is 3.16 to 31.6 nM. Also, the Kb in assay [2] is 3.16 to 31.6 nM.

As for `O=S(=O)(Nc1nc(F)c(Cl)cc1F)c1c[nH]c2c3c(ccc12)CCC3` [Compound I-317, N-(5-chloro-3,6-difluoropyridin-2-yl)-1,6,7,8-tetrahydrocyclopenta[g]indole-3-sulfonamide], in assay [1], the IC50 is 3.16 to 31.6 nM. Besides, the Kb in assay [2] was 3.16 to 31.6 nM.

`COc1ccc2c(S(=O)(=O)Nc3cc(F)c(Cl)cc3F)c(F)[nH]c2c1` [Compound I-318, N-(4-chloro-2,5-difluorophenyl)-2-fluoro-6-methoxy-1H-indole-3-sulfonamide]: the IC50 in assay [1] is 3.16 to 31.6 nM. Besides, the Kb in assay [2] is 3.16 to 31.6 nM.

Regarding `COc1nc(NS(=O)(=O)c2c[nH]c3c(F)c(Cl)ccc23)c(F)cc1Cl` [Compound I-319, 6-chloro-N-(5-chloro-3-fluoro-6-methoxypyridin-2-yl)-7-fluoro-1H-indole-3-sulfonamide], the IC50 in assay [1] was less than 3.16 nM. Also, the Kb in assay [2] was less than 3.16 nM.

Regarding `COc1nc(NS(=O)(=O)c2c[nH]c3c(Br)c(Cl)ccc23)c(F)cc1Cl` [Compound I-321, 7-bromo-6-chloro-N-(5-chloro-3-fluoro-6-methoxypyridin-2-yl)-1H-indole-3-sulfonamide], the IC50 in assay [1] is less than 3.16 nM. Moreover, the Kb in assay [2] was less than 3.16 nM.

On to `COCCCc1cc(F)c(NS(=O)(=O)c2c[nH]c3cc(Br)ccc23)nc1F` [Compound I-323, 6-bromo-N-[3,6-difluoro-5-(3-methoxypropyl)pyridin-2-yl]-1H-indole-3-sulfonamide], for which, in assay [1], the IC50 is less than 3.16 nM. For the same compound, the Kb in assay [2] was less than 3.16 nM.

For the compound `COc1nc(NS(=O)(=O)c2c[nH]c3cc(Cl)c(Br)cc23)c(F)cc1CC#N` [Compound I-324, 5-bromo-6-chloro-N-[5-(cyanomethyl)-3-fluoro-6-methoxypyridin-2-yl]-1H-indole-3-sulfonamide], the IC50 in assay [1] is less than 3.16 nM. Further, the Kb in assay [2] was less than 3.16 nM.

For `COC/C=C/c1cc(F)c(NS(=O)(=O)c2c[nH]c3cc(Br)ccc23)nc1F` [Compound I-325, 6-bromo-N-{3,6-difluoro-5-[(1E)-3-methoxyprop-1-en-1-yl]pyridin-2-yl}-1H-indole-3-sulfonamide], the IC50 in assay [1] was less than 3.16 nM. Also, in assay [2], the Kb was less than 3.16 nM.

In the case of `Cc1c(Br)ccc2c(S(=O)(=O)Nc3ncc(Cl)cc3F)c[nH]c12` [Compound I-326, 6-bromo-N-(5-chloro-3-fluoropyridin-2-yl)-7-methyl-1H-indole-3-sulfonamide], the IC50 in assay [1] was 3.16 to 31.6 nM. Further, in assay [2], the Kb is less than 3.16 nM.
